Measured values taken from patent US6387891B2, “COMPOUNDS WITH CHELATION AFFINITY AND SELECTIVITY FOR FIRST TRANSITION SERIES ELEMENTS AND THEIR USE IN COSMETICS AND PERSONAL CARE PRODUCTS, INHIBITION OF METALLOENZYMES, AND INHIBITION OF REPERFUSION INJURY” (Concat, Ltd., priority 2000, dated 2002).
Counter-ions that a name gives are not always drawn.

Experiments:
[1] = Cytotoxicity study in AIDS antiviral screen (soluble-formazan assay); format: cell-based; details: human, T4 lymphocytes
Procedure: (§1) The antiviral efficacy of N,N′,N″-tris(5-t-butyl-2-hydroxy-benzyl)-1,4,7-triazacyclononane against the AIDS virus was evaluated employing published methodology (see, “New Soluble-Formazin Assay for HIV-1 Cytopathic Effects: Application to High Flux Screening of Synthetic and Natural Products for AIDS-Antiviral Activity,” J. Natl. Cancer Inst. 81:577-586, 1989).

AIDS virus = experiment: Inhibition of AIDS virus replication (soluble-formazan assay for HIV-1 cytopathic effects); format: cell-based; details: Human immunodeficiency virus 1; read-out: EC50 (inhibition of the AIDS Virion)
Procedure: as §1

[2] = test system: BGM cells (a continuous cell line of monkey origin); experiment: Inhibition of mammalian cell replication in vitro; format: cell-based
Procedure: Concentrations of this ligand of 0.009 mM/L inhibited the growth of both BGM cells (a continuous cell line of monkey origin) and HFF cells (human foreskin fibroblasts).

[3] = test system: HFF cells (human foreskin fibroblasts); experiment: Inhibition of mammalian cell replication in vitro; format: cell-based
[4] = test system: 57 human cancer cell lines; experiment: In vitro proliferation of 57 human cancer cell lines; format: cell-based; details: cell line groups compared
Procedure: The ability of N-methyl-N′,N″-bis(dihydroxyphorylmethyl)-1,4,7-triazacyclononane to inhibit proliferation of 57 human cancer cell lines in vitro was evaluated employing published methods as published in J. Natl. Cancer Inst., 83:757-766, 1991. The concentration of agent that caused 50% inhibition of cell replication relative to controls [Gl50] were determined. In one set of experiments the mean midpoint of Gl50 for all cell lines tested was (10)^−4.72 with a delta value of (10)^2.95 and a range of (10)^3.67.

pure MMP-2 enzyme = pure MMP-2 enzyme (Homo sapiens, UniProt P08253); experiment: Inhibition of pure MMP-2 enzyme; format: biochemical
Chain of pure MMP-2 enzyme (P08253 110-660): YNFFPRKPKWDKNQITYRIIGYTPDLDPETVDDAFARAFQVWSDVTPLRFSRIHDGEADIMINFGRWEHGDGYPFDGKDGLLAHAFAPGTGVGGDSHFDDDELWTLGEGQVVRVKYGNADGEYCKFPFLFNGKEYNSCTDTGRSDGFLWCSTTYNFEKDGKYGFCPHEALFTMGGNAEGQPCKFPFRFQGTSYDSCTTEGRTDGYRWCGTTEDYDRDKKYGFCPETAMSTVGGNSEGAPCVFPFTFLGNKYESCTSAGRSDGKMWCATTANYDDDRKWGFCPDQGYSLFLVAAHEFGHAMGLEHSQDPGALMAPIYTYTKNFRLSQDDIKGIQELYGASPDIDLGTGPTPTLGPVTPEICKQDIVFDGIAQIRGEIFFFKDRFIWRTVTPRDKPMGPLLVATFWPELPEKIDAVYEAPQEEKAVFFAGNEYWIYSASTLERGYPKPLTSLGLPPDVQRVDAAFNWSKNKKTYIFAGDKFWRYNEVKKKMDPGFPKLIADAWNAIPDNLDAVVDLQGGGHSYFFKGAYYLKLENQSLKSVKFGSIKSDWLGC

underarm odor = experiment: Inhibition of underarm odor in human subjects; format: in vivo
Source text: Human subjects applied a 30% aqueous solution of the neutral sodium salt of N,N′,N″-tri(dihydroxyphosphoryl methyl)-1,4,7-triazacyclononane in one axilla and a control aqueous solution in the other.

mice = experiment: Acute intravenous toxicity in mice; format: in vivo; details: 4.0 mM/kg single intravenous dose
Procedure: (§2) This example illustrates the low in vivo toxicity of a representative ligand administer intravenously to mice.
(§3) This in vivo LD50 toxicity dose results in an instantaneous in vivo concentration which is orders of magnitude greater than the dose of this agent which inhibits mammalian cell replication in vitro (0.009 mM/L).

[5] = Acute intravenous toxicity in mice; format: in vivo; details: mouse, in vivo, 4 mM/kg, intravenous
Procedure: as §2, §3

monocyte = experiment: Monocyte penetration of Matrigel membranes; format: cell-based
Source text: (§4) Matrix metalloproteinase-2 (MMP-2) secreted by cells into growth media was separated by gel electrophoresis into its distinct band. […] Concentrations of less than 10 microM of sodium salt of N,N′,N″-tri(dihydroxyphosphoryl methyl)-1,4,7-triazacyclononane inhibited monocyte penetration of Matrigel membranes.

Microsporum canis = experiment: Inhibition of mycotic cell replication in vitro (MIC); format: cell-based
Procedure: (§5) N,N′,N″-tris(dihydroxyphosphorylmethyl)-1,4,7-triazacyclononane was prepared as described in Example 1C in U.S. Pat. No. 5,236,695. Studies were performed to determine its ability to inhibit growth of mycotic (fungal) organisms.
(§6) For Microsporum canis the minimum inhibitory concentration was 0.233 mM/L or less. For Candida albicans and Trichophyton rubrum the minimal inhibitory concentration was 2.33 mM/L. For Trichophyton mentagrophytes, Trichophyton tonsuras and Trichophyton violaceum the minimal inhibitory concentration was 23.3 mM/L.

Trichophyton tonsuras = experiment: as above; format: cell-based
Procedure: as §5, §6

Candida albicans = experiment: as above; format: cell-based
Procedure: as §5, §6

Trichophyton violaceum = experiment: as above; format: cell-based
Procedure: as §5, §6

[6] = test system: Trichophyton mentagrophytes; experiment: as above; format: cell-based
Procedure: as §5, §6

Trichophyton rubrum = experiment: as above; format: cell-based
Procedure: as §5, §6

Sprague Dawley rats = experiment: Subacute toxicity, repeated intravenous doses in rats; format: in vivo; details: 0.05 millimoles per kg i.v. on 10 days
Source text: Ten male Sprague Dawley rats 29 days old and weighing between 73.4 and 87.8 grams at the beginning of the experiment were randomized, employing the block stratification method, into two groups consisting of five rats each. On each of days 1, 2, 3, 6, 7, 8, 9, 10, 13 and 14 of the experiment one set of rats received an intravenous dose of N,N′,N″-tri(dihydroxyphosphoryl methyl)-1,4,7-triazacyclononane (Example 1C in U.S. Pat. No. 5,236,695) equal to 0.05 millimoles per kg of initial body weight (experimental group) while the other group received an equivalent volume of normal saline solution. The weights of the animals were recorded three times per week and the animals were sacrificed on the 28th day, major organs removed and weighed and tissues removed for microscopic examination.

Streptococcus Sobrinus = experiment: Inhibition of cariogenic bacteria (MIC, RPMI medium); format: cell-based; details: read-out: minimum inhibitory concentration (MIC)
[7] = test system: Streptococcus hemolyticus; experiment: Inhibition of bacterial replication in vitro (MIC); format: cell-based
Procedure: (§7) N,N′,N″-tris(dihydroxyphosphorylmethyl)-1,4,7-triazacyclononane was prepared as described in Example 1C in U.S. Pat. No. 5,236,695. Studies were performed to determine its ability to inhibit bacterial growth. For Streptococcus hemolyticus, Listeria monocytogenes, Enterobacter cloacae and Klebsiella pneumoniae the minimum inhibitory concentration was determined to be 0.15 mM/L. For Enterococcus fecalis, Pseudomonas aeruginosa and Acinobacter anitratus the minimum inhibitory concentration was determined to be 0.3 mM/L.

Enterococcus fecalis = experiment: Inhibition of bacterial replication in vitro (MIC); format: cell-based
Procedure: as §7

Enterobacter cloacae = experiment: Inhibition of bacterial replication in vitro (MIC); format: cell-based
Procedure: as §7

Acinobacter anitratus = experiment: Inhibition of bacterial replication in vitro (MIC); format: cell-based
Procedure: as §7

Klebsiella pneumoniae = experiment: Inhibition of bacterial replication in vitro (MIC); format: cell-based
Procedure: as §7

Listeria monocytogenes = experiment: Inhibition of bacterial replication in vitro (MIC); format: cell-based
Procedure: as §7

Pseudomonas aeruginosa = experiment: Inhibition of bacterial replication in vitro (MIC); format: cell-based
Procedure: as §7

[8] = Chemical antioxidant properties, coupled oxidation of carotene and linoleic acid; format: physicochemical
Procedure: Antioxidant properties of N,N′,N″-tri(dihydroxyphosphoryl methyl)-1,4,7-triazacyclononane were evaluated employing the coupled oxidation of carotene and linoleic acid, using the method described in “Phenolic Antioxidants of Dried Soybeans,” Hammerschmidt, P. A., Praat, D. E., 1978, Journal of Food Sciences, vol. 43, pp. 556-559.

[9] = test system: mature, nonreplicating cultures of HFF (human foreskin fibroblasts); experiment: Toxicity toward nonproliferating mammalian cells in vitro; format: cell-based; details: 0.3 mM, maintenance media, five-day period of observation
[10] = molecular target: T1, Matrix metalloproteinase-2 (MMP-2) secreted by cells (Homo sapiens, UniProt P08253); experiment: MMP-2 inhibition after gel electrophoresis, incubation in developing medium; format: biochemical; details: MMP-2 band after gel electrophoresis
T1 construct: Matrix metalloproteinase-2 (MMP-2) secreted by cells into growth media; endogenous in cells
T1 sequence (P08253 110-660, species assumed): as the sequence (P08253 110-660) above
Source text: as §4

[11] = test system: isolated working rat heart; experiment: Ischemic/reperfused isolated working rat heart model
Procedure: Using the ischemic/reperfused isolated working rat heart model of Ferdinandy et al., Cardiovasc. […] Concentrations of this agent as high as 7.2 mM had no adverse effects on the heart either before or after hypoxia/reperfusion injury.

`CC(C)(C)c1ccc(O)c(CN2CCN(Cc3cc(C(C)(C)C)ccc3O)CCN(Cc3cc(C(C)(C)C)ccc3O)CC2)c1` [N,N′,N″-tris(5-t-butyl-2-hydroxy-benzyl)-1,4,7-triazacyclononane] showed an IC50 [1] of 110 µM and an EC50 (AIDS virus) of 3 µM.
For `CCOC(=O)CN1CCN(CC(=O)OCC)CCN(CC(=O)OCC)CC1` [Example 1.3.6.13, N,N′,N″-Tris(ethoxycarbonylmethyl)-1,4,7-triazacyclononane], the “concentration that inhibited BGM cell growth” value [2] was 0.04 mM/L and the “concentration that inhibited HFF cell growth” value [3] was 0.16 mM/L.
In the case of `O=C(O)CN1CCN(CC(=O)O)CCN(CC(=O)O)CC1` [Example 1.3.6.1, N,N′,N″-Tris(carboxymethyl)-1,4,7-triazacyclononane], the “concentration that inhibited BGM cell growth” value [2] is reported as 0.009 mM/L and the “concentration that inhibited HFF cell growth” value [3] is reported as 0.019 mM/L.
In the case of `O=C(O)CN(CCN(CC(=O)O)CC(=O)O)CCN(CC(=O)O)CC(=O)O` [Diethylene triamine penta acetic acid, reference compound], the “concentration that inhibited BGM cell growth” value [2] is reported as 0.075 mM/L and the “concentration that inhibited HFF cell growth” value [3] is reported as 0.3 mM/L.
With `CN1CCN(CP(=O)(O)O)CCN(CP(=O)(O)O)CC1` [N-methyl-N′,N″-bis(dihydroxyphorylmethyl)-1,4,7-triazacyclononane] the “relative sensitivity of cancer cell groups” value [4] was “leukemia and colon cancer cells were more sensitive to the agent than were other cancer cells”.
For `O=P(O)(O)CN1CCN(CP(=O)(O)O)CCN(CP(=O)(O)O)CC1` [sodium salt of N,N′,N″-tris-(dihydroxyphosphorylmethyl)-1,4,7-triazacyclononane], the IC50 (pure MMP-2 enzyme) was under 10 µM, the “subjective evaluation of underarm odor” value (underarm odor; 30% aqueous solution in one axilla, control aqueous solution in the other) was “less underarm odor in the treated axilla than in the control” and the “duration of decreased underarm odor after a single application” value (underarm odor; 30% aqueous solution, single application) was “up to one week”. For the same molecule, the “mice surviving for over 14 days” value (mice) was “Over 50%”, the LD50 [5] was over 4000 µmol/kg and the “concentration that inhibited monocyte penetration of Matrigel membranes” value (monocyte) was “less than 10 microM”.
Work on `O=P(O)(O)CN1CCN(CP(=O)(O)O)CCN(CP(=O)(O)O)CC1` [N,N′,N″-tris(dihydroxyphosphorylmethyl)-1,4,7-triazacyclononane] yielded a minimum inhibitory concentration (Microsporum canis) of at most 0.233 mM/L, a minimal inhibitory concentration (Trichophyton tonsuras) of 23.3 mM/L and a minimal inhibitory concentration (Candida albicans) of 2.33 mM/L. For the same molecule, the minimal inhibitory concentration (Trichophyton violaceum) was 23.3 mM/L, the minimal inhibitory concentration [6] was 23.3 mM/L and the minimal inhibitory concentration (Trichophyton rubrum) was 2.33 mM/L. For the same molecule, the “weight or rate of weight gain vs control” value (Sprague Dawley rats; injection and two-week post-injection period) was “no statistically significant difference in weight or rate of weight gain”, the “microscopic examination of tissues vs control” value (Sprague Dawley rats; necropsy on 28th day) was “no differences between the tissues” and the “weights of major organs vs control” value (Sprague Dawley rats; sacrificed on 28th day) was “no differences observed between the weights of major organs”. For the same molecule, the MIC (Streptococcus Sobrinus) was under 20 µM, the “concentration that inhibited BGM cell growth” value [2] was 0.009 mM/L and the minimum inhibitory concentration [7] was 0.15 mM/L. It also gave a minimum inhibitory concentration (Enterococcus fecalis) of 0.3 mM/L, a minimum inhibitory concentration (Enterobacter cloacae) of 0.15 mM/L and a minimum inhibitory concentration (Acinobacter anitratus) of 0.3 mM/L. It also gave a minimum inhibitory concentration (Klebsiella pneumoniae) of 0.15 mM/L, a minimum inhibitory concentration (Listeria monocytogenes) of 0.15 mM/L and a minimum inhibitory concentration (Pseudomonas aeruginosa) of 0.3 mM/L. For the same molecule, the antioxidant activity [8] was “antioxidant activity similar to the commonly used food antioxidant butylated hdryoxyanisole (BHA)”, the “concentration that inhibited HFF cell growth” value [3] was 0.009 mM/L and the “effect on resting (nonreplicating) HFF cells” value [9] was “no effect on the resting cells was observed”.
With “salts of N,N′,N″-tri(dihydroxyphosphoryl methyl)-1,4,7-triazacyclononane” the “concentration that inhibited enzymatic action of MMP-2” value [10] was “less than 10 microM”, the “concentration with no adverse effects on the heart” value ([11]; before or after hypoxia/reperfusion injury) was at least 7200 µM and the “concentration in the perfusing medium effective in improving myocardial functional parameters and decreasing the incidence of ventricular fibrillation” value ([11]; ischemic/reperfused isolated working rat heart) was at most 0.1 mM.
